Test results taken from patent publication US20030087761A1, “Synergistic active compound combinations for controlling harmful plants” (priority 2001, published 2003).

Legend:
Format in all cases: in vivo
[1] = test system: APESV = Apera spica-venti (common wind grass); experiment: Field trial in winter wheat, post-emergence method: herbicidal effect on APESV; conditions: post-emergence at middle tillering stage, evaluation 21 days after application, dose 50 g ai/ha
Protocol: (§1) The herbicidal efficacy of the active compounds or active compound mixtures was scored visually using the treated plots in comparison to untreated control plots. The damage and development of all above-ground parts of the plants were recorded. Scoring was carried out using a percentage scale (100% effect=all plants killed; 50% effect=50% of the plants and the green parts of the plants killed; 0% effect no noticeable effect=like control plot). The scores of in each case 4 plots were averaged.
(§2) Crop plants were grown outdoors on plots under natural outdoor conditions, and seeds or rhizome pieces of typical harmful plants were laid out or the natural weed growth was utilized. Treatment with the compositions according to the invention was carried out after the harmful plants had emerged and the crop plants were, generally, at the 2- to 4-leaf stage; in some cases (as stated), application of individual active compounds or active compound combinations was carried out pre-emergence (cf. Section 1) or post-emergence (cf. Section 2) or as a sequential treatment partly pre-emergence and/or post-emergence. After the application, for example 2, 4, 6 and 8 weeks after the application, the effect of the preparations was scored visually by comparison with untreated controls (cf. scoring in Section 1). […]

Winter wheat = experiment: Field trial in winter wheat, post-emergence method: crop damage; conditions: post-emergence at middle tillering stage, evaluation 21 days after application, dose 50 g ai/ha
Protocol: as §1, §2

CHEAL = experiment: Field trial in corn, pre-emergence method: herbicidal effect on CHEAL; conditions: evaluation 36 days after application
Protocol: as §1
(§3) Crop plants were grown outdoors on plots under natural outdoor conditions, and seeds or rhizome pieces of typical harmful plants were laid out or the natural weed growth was utilized. Treatment with the compositions according to the invention was carried out after the harmful plants had emerged and the crop plants were, generally, at the 2- to 4-leaf stage; in some cases (as stated), application of individual active compounds or active compound combinations was carried out pre-emergence (cf. Section 1) or post-emergence (cf. Section 2) or as a sequential treatment partly pre-emergence and/or post-emergence. After the application, for example 2, 4, 6 and 8 weeks after the application, the effect of the preparations was scored visually by comparison with untreated controls (cf. scoring in Section 1). In the field trial as well, the compositions according to the invention have synergistic herbicidal activity against a broad spectrum of economically important weed grasses and broad-leaved weeds. […] Moreover, the effects in essential phases of the scoring period were above the expected values according to Colby, also indicating synergism. In contrast, the crop plants were, as a consequence of the treatments with the herbicidal compositions, damaged only to a small degree, if at all.
(§4) The numbers in the columns of the table under the designations of the harmful plants and the crop plants relate to the herbicidal effects or damage to the plants in percent.

ECHCG = experiment: Field trial in corn, pre-emergence method: herbicidal effect on ECHCG; conditions: evaluation 36 days after application
Protocol: as §1, §3, §4

Corn = experiment: Field trial in corn, pre-emergence method: crop damage
Protocol: as §1, §3, §4

[2] = field trial, pre-emergence, evaluation 36 days after application, dose 75 g ai/ha

SMILES | APESV [effect in %] [1] [%] | Winter wheat [damage in %] (Winter wheat) [%] | CHEAL [effect in %] (CHEAL; dose 75 g ai/ha) [%] | ECHCG [effect in %] (ECHCG; dose 75 g ai/ha) [%] | Corn [damage in %] (Corn; [2]) [%] | further results
CCC(F)c1nc(N)nc(C(C)c2cc(F)cc(F)c2)n1 (stereo not shown) [(A60), 2-amino-4-(1-fluoropropyl)-6-[1-(3,5-difluorophenyl)ethyl]-1,3,5-triazine] | 0 | 0 | – | – | – | –
CCC(F)c1nc(N)nc(C(C)c2ccc(F)c(C)c2)n1 (stereo not shown) [(A20), 2-amino-4-(1-fluoropropyl)-6-[1-(3-methyl-4-fluorophenyl)ethyl]-1,3,5-triazine] | – | – | 20 | 0 | 0 | –
CC(F)c1nc(N)nc(C(C)c2ccc(F)c(F)c2)n1 (stereo not shown) [(A11), 2-amino-4-(1-fluoroethyl)-6-[1-(3,4-difluorophenyl)ethyl]-1,3,5-triazine] | – | – | 0 | 0 | 0 | –
CCC(F)c1nc(N)nc(C(C)c2ccc(F)c(Cl)c2)n1 (stereo not shown) [(A50), 2-amino-4-(1-fluoropropyl)-6-[1-(3-chloro-4-fluorophenyl)ethyl]-1,3,5-triazine] | 0 | 0 | – | – | – | –
CS(=O)(=O)c1cc(C(F)(F)F)ccc1C(=O)c1cnoc1C1CC1 [(B3.4.4), isoxaflutole, reference compound] | – | – | – | – | – | CHEAL [effect in %] (CHEAL; dose 50 g ai/ha): 25%; ECHCG [effect in %] (ECHCG; dose 50 g ai/ha): 86%; Corn [damage in %] (Corn; corn, in vivo, 36 days): 0%
